The record followed here is patent publication US8158628B2, “Sulfonylated 1,2,3,4-tetrahydropyrrolo[1,2-a]pyrazine compounds and their use as pharmaceuticals” (Gruenenthal GmbH, priority 2009, dated 2012).

The structures appear in SMILES notation.

The inhibition is the relative decrease from the control value, in per cent.

For one assay, the target named is T1, B1R of the rat (Rattus norvegicus, UniProt P97583).
T1 construct: expressed in transfected cells; host or cells: CHO K1 cells (Chinese hamster ovary), stably transfected
T1 sequence (P97583 1-337): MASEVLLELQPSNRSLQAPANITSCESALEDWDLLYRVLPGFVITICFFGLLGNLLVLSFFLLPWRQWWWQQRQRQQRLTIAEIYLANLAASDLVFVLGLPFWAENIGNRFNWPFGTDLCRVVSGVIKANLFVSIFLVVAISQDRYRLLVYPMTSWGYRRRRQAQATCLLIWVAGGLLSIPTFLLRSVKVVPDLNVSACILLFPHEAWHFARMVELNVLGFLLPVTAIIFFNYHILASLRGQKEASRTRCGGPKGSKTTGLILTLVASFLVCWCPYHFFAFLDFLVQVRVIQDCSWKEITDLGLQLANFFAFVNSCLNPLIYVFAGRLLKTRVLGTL
The assay can be described thus: FLIPR Ca2+ functional assay, B1R antagonism, rat B1R in CHO K1 cells. It is filed as cell-based. To be noted: test substance 10 μM; rB1R CHO K1 cells; agonist Des-Arg9 bradykinin at EC80; % of maximum achievable inhibition. In short, it runs like this: (§1)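 Stably transfected CHO K1 cells loaded with Fluo-4; Ca2+ fluorescence read on FLIPR (ex 488/em 540 nm). Compound preincubated 10-20 min, then agonist at EC80: Lys-Des-Arg9 bradykinin (human) or Des-Arg9 bradykinin (rat). % inhibition vs maximal inhibition; IC50 from concentration series, n=2-3, N>=2.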

The target of another assay is T2, human B1R (Homo sapiens, UniProt P46663).
T2 construct: expressed in transfected cells; host or cells: CHO K1 cells (Chinese hamster ovary), stably transfected
T2 sequence (P46663 1-353): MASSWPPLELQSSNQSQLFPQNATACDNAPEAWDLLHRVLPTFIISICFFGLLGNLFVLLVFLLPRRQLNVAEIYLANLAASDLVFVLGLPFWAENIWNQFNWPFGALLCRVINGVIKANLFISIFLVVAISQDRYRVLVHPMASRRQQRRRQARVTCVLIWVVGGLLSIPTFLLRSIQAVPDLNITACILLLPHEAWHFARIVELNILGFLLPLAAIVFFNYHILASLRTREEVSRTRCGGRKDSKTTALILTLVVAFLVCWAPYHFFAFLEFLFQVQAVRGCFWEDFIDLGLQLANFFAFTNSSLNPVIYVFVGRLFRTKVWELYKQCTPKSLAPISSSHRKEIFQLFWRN
The assay can be described thus: FLIPR Ca2+ functional assay, B1R antagonism, human B1R in CHO K1 cells. It is filed as cell-based. Particulars: test substance 10 μM; hB1R CHO K1 cells; agonist Lys-Des-Arg9 bradykinin at EC80; % of maximum achievable inhibition. A digest of the protocol: as §1

Take `COc1cc(C)c(S(=O)(=O)N2CCn3cccc3C2COCC(=O)N2CCC(Oc3ccncc3)C2)c(C)c1` (centres unmarked) [Example 38, 2-[[2-[(4-Methoxy-2,6-dimethyl-phenyl)sulfonyl]-1,2,3,4-tetrahydro-pyrrolo[1,2-a]pyrazin-1-yl]-methoxy]-1-(3-pyridin-4-yloxy-pyrrolidin-1-yl)-ethanone]: the inhibition at 10 µM turned out to be 104% at B1R of the rat and 98.1% on human B1R.

With `COc1cc(C)c(S(=O)(=O)N2CCn3cccc3C2COCC(=O)N(C)C2CCN(c3ccncc3)CC2)c(C)c1` (centres unmarked) [Example 39, 2-[[2-[(4-Methoxy-2,6-dimethyl-phenyl)sulfonyl]-1,2,3,4-tetrahydro-pyrrolo[1,2-a]pyrazin-1-yl]-methoxy]-N-methyl-N-(1-pyridin-4-yl-piperidin-4-yl)-acetamide], the inhibition at 10 µM on B1R of the rat was found to be 105%; on human B1R, 99.6%.

With `COc1cc(C)c(S(=O)(=O)N2CCn3cccc3C2COCC(=O)N2CCC(N3CC4CC3CN4C)CC2)c(C)c1` (centres unmarked) [Example 40, 2-[[2-[(4-Methoxy-2,6-dimethyl-phenyl)sulfonyl]-1,2,3,4-tetrahydro-pyrrolo[1,2-a]pyrazin-1-yl]-methoxy]-1-[4-(3-methyl-3,6-diazabicyclo[2.2.1]heptan-6-yl)-piperidin-1-yl]-ethanone], the inhibition at 10 µM at B1R of the rat was determined as 94.9%; at human B1R, 99.6%.

On to `COc1ccc2cc(S(=O)(=O)N3CCn4cccc4C3CC(=O)NCCc3ccc(C4=NCCN4)cc3)ccc2c1` (centres unmarked) [Example 41, N-[2-[4-(4,5-Dihydro-1H-imidazol-2-yl)-phenyl]-ethyl]-2-[2-[(6-methoxy-naphthalen-2-yl)sulfonyl]-1,2,3,4-tetrahydro-pyrrolo[1,2-a]pyrazin-1-yl]-acetamide], for which the inhibition at 10 µM turned out to be 103% on B1R of the rat and 100% at human B1R.

Regarding `Cc1ccc(S(=O)(=O)N2CCn3cccc3C2CC(=O)N[C@@H]2CCCc3cc(CNC(C)(C)C)ccc32)cc1` (stereo partly drawn) [Example 42, N-[(1R)-6-[(tert-Butylamino)-methyl]-1,2,3,4-tetrahydro-naphthalen-1-yl]-2-[2-(p-tolylsulfonyl)-1,2,3,4-tetrahydro-pyrrolo[1,2-a]pyrazin-1-yl]-acetamide], the inhibition at 10 µM was 107% at B1R of the rat and 99.9% on human B1R.

As to `COc1ccc2cc(S(=O)(=O)N3CCn4cccc4C3CC(=O)N(C)C3CCc4cc(CN5CCCCC5)ccc4C3)ccc2c1` (centres unmarked) [Example 43, 2-[2-[(6-Methoxy-naphthalen-2-yl)sulfonyl]-1,2,3,4-tetrahydro-pyrrolo[1,2-a]pyrazin-1-yl]-N-methyl-N-[6-(piperidin-1-yl-methyl)-1,2,3,4-tetrahydro-naphthalen-2-yl]-acetamide], the values for the inhibition at 10 µM at B1R of the rat and at human B1R were 103% and 99.5%, respectively.

`Cc1ccc(S(=O)(=O)N2CCn3cccc3C2CC(=O)N[C@@H]2CCCc3cc(CN4CCC(F)CC4)ccc32)cc1` (stereo partly drawn) [Example 44, N-[(1R)-6-[(4-Fluoro-piperidin-1-yl)-methyl]-1,2,3,4-tetrahydro-naphthalen-1-yl]-2-[2-(p-tolylsulfonyl)-1,2,3,4-tetrahydro-pyrrolo[1,2-a]pyrazin-1-yl]-acetamide]: the inhibition at 10 µM on B1R of the rat stood at 104%; on human B1R, 99.3%.

As for `Cc1ccc(S(=O)(=O)N2CCn3cccc3C2CC(=O)N[C@@H]2CCCc3cc(CNCC(F)(F)F)ccc32)cc1` (stereo partly drawn) [Example 45, 2-(2-Tosyl-1,2,3,4-tetrahydropyrrolo[1,2-a]pyrazin-1-yl)-N—((R)-6-((2,2,2-trifluoroethylamino)methyl)-1,2,3,4-tetrahydronaphthalen-1-yl)acetamide], the inhibition at 10 µM on B1R of the rat came to 64%; on human B1R, 50.6%.

Consider `Cc1ccc(S(=O)(=O)N2CCn3cccc3C2CC(=O)N[C@H](C)c2ccc(CNC(C)(C)C)cc2)cc1` (stereo partly drawn) [Example 46, N-[(1R)-1-[4-[(tert-Butylamino)-methyl]-phenyl]-ethyl]-2-[2-(p-tolylsulfonyl)-1,2,3,4-tetrahydro-pyrrolo[1,2-a]pyrazin-1-yl]-acetamide], for which the inhibition at 10 µM worked out at 29% at B1R of the rat and 55.8% at human B1R.

For the molecule `O=C(CC1c2cccn2CCN1S(=O)(=O)c1cccc(Cl)c1)NC1CCc2cc(CN3CCCCC3)ccc2C1` (centres unmarked) [Example 47, 2-(2-(3-chlorophenylsulfonyl)-1,2,3,4-tetrahydropyrrolo[1,2-a]-pyrazin-1-yl)-N-(6-(piperidin-1-ylmethyl)-1,2,3,4-tetrahydronaphthalen-2-yl)-acetamide], the inhibition at 10 µM came out at 106% on B1R of the rat and 99.9% at human B1R.

With `COc1ccc2cc(S(=O)(=O)N3CCn4cccc4C3CC(=O)NC3Cc4ccc(CN5CCCCC5)cc4C3)ccc2c1` (centres unmarked) [Example 48, 2-(2-(6-methoxynaphthalen-2-ylsulfonyl)-1,2,3,4-tetrahydropyrrolo-[1,2-a]pyrazin-1-yl)-N-(5-(piperidin-1-ylmethyl)-2,3-dihydro-1H-inden-2-yl)-acetamide], the inhibition at 10 µM is 105% on B1R of the rat and 99.6% on human B1R.

`Cc1ccc(S(=O)(=O)N2CCn3cccc3C2CC(=O)NC2CCc3cc(CN4CCCC4)ccc3C2)cc1Cl` (centres unmarked) [Example 49, 2-[2-[(3-Chloro-4-methyl-phenyl)sulfonyl]-1,2,3,4-tetrahydro-pyrrolo[1,2-a]pyrazin-1-yl]-N-[6-(pyrrolidin-1-yl-methyl)-1,2,3,4-tetrahydro-naphthalen-2-yl]-acetamide]: the values for the inhibition at 10 µM at B1R of the rat and at human B1R were 100% and 99.9%, respectively.

For the molecule `Cc1ccc(S(=O)(=O)N2CCn3cccc3C2CC(=O)NC2CCc3cc(CN4CCCCC4)ccc3C2)cc1Cl` (centres unmarked) [Example 50, 2-[2-[(3-Chloro-4-methyl-phenyl)sulfonyl]-1,2,3,4-tetrahydro-pyrrolo[1,2-a]pyrazin-1-yl]-N-[6-(piperidin-1-yl-methyl)-1,2,3,4-tetrahydro-naphthalen-2-yl]-acetamide], the inhibition at 10 µM on B1R of the rat was 99.5%; at human B1R it was 99.7%.

With `Cc1ccc(S(=O)(=O)N2CCn3cccc3C2CC(=O)NC2CCc3cc(CNCc4ccccc4)ccc3C2)cc1Cl` (centres unmarked) [Example 51, N-[6-[(Benzylamino)-methyl]-1,2,3,4-tetrahydro-naphthalen-2-yl]-2-[2-[(3-chloro-4-methyl-phenyl)sulfonyl]-1,2,3,4-tetrahydro-pyrrolo[1,2-a]pyrazin-1-yl]-acetamide], the inhibition at 10 µM amounted to 103% on B1R of the rat and 99.5% on human B1R.

For `Cc1ccc(S(=O)(=O)N2CCn3cccc3C2CC(=O)NC2CCc3cc(CN4CCCc5ccccc54)ccc3C2)cc1Cl` (centres unmarked) [Example 52, 2-[2-[(3-Chloro-4-methyl-phenyl)sulfonyl]-1,2,3,4-tetrahydro-pyrrolo[1,2-a]pyrazin-1-yl]-N-[6-(1,2,3,4-tetrahydro-quinolin-1-yl-methyl)-1,2,3,4-tetrahydro-naphthalen-2-yl]-acetamide], the results for the inhibition at 10 µM on B1R of the rat and at human B1R were 103% and 96%, respectively.

As for `O=C(CC1c2cccn2CCN1S(=O)(=O)c1cccc(C(F)(F)F)c1)NC1CCCc2cc(CN3CCOCC3)ccc21` (centres unmarked) [Example 53, N-[6-(Morpholin-4-yl-methyl)-1,2,3,4-tetrahydro-naphthalen-1-yl]-2-[2-[[3-(trifluoromethyl)phenyl]sulfonyl]-1,2,3,4-tetrahydro-pyrrolo[1,2-a]pyrazin-1-yl]-acetamide], the inhibition at 10 µM on B1R of the rat is 102%; on human B1R it was 99%.

For the molecule `Cc1ccc(S(=O)(=O)N2CCn3cccc3C2CC(=O)NC2CCCc3cc(CN4CCOCC4)ccc32)cc1` (centres unmarked) [Example 54, N-[6-(Morpholin-4-yl-methyl)-1,2,3,4-tetrahydro-naphthalen-1-yl]-2-[2-(p-tolylsulfonyl)-1,2,3,4-tetrahydro-pyrrolo[1,2-a]pyrazin-1-yl]-acetamide], the inhibition at 10 µM on B1R of the rat stood at 100%; on human B1R, 99%.

For `Cc1ccc(S(=O)(=O)N2CCn3cccc3C2CC(=O)NC2CCCc3cc(CN4CCN(C)CC4)ccc32)cc1Cl` (centres unmarked) [Example 55, 2-[2-[(3-Chloro-4-methyl-phenyl)sulfonyl]-1,2,3,4-tetrahydro-pyrrolo[1,2-a]pyrazin-1-yl]-N-[6-[(4-methyl-piperazin-1-yl)-methyl]-1,2,3,4-tetrahydro-naphthalen-1-yl]-acetamide], the inhibition at 10 µM came out at 99.4% on B1R of the rat and 99.8% on human B1R.

Turning to `Cc1ccc(S(=O)(=O)N2CCn3cccc3C2CC(=O)NC2CCCc3cc(CN4CCCCC4)ccc32)cc1Cl` (centres unmarked) [Example 56, 2-[2-[(3-Chloro-4-methyl-phenyl)sulfonyl]-1,2,3,4-tetrahydro-pyrrolo[1,2-a]pyrazin-1-yl]-N-[6-(piperidin-1-yl-methyl)-1,2,3,4-tetrahydro-naphthalen-1-yl]-acetamide], the inhibition at 10 µM on B1R of the rat was found to be 98%; on human B1R, 99.7%.
